The values that follow come from patent US12077503B2, “Substituted cyclic amides and their use as herbicides” (FMC CORPORATION, priority 2015, dated 2024).

Each structure is given as a SMILES string.

What all share (assay type): in vivo
Assay [1] deals with ryegrass, Italian (Italian ryegrass, Lolium multiflorum). In words: Test A preemergence. The settings on record: Lolium multiflorum, pre-emergence, 240 h; for pest or weed control at 125 g/ha: 125 g ai/ha, preemergence, 0 to 100 scale where 0 is no effect and 100 is complete control, read-out: Ryegrass, Italian plant response rating; for pest or weed control at 500 g/ha: 500 g ai/ha, Preemergence, visual injury vs untreated controls after approximately 10 d, read-out: Ryegrass, Italian plant response rating (0 to 100 scale where 0 is no effect and 100 is complete control). Summed up: (§1)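 Compounds were formulated in a non-phytotoxic solvent mixture with surfactant and applied as a preemergence directed soil spray after seeding, or sprayed postemergence over plants 2 to 10 cm tall at the one- to two-leaf stage. Evaluation after about 10 d compared treated with untreated controls, using a scale from 0 (no effect) to 100 (complete control).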

In assay [2] the test system is Galium (catchweed bedstraw, Galium aparine). Kind of assay: Test A postemergence. The settings on record: Galium, post-emergence, 240 h, 125 g ai/ha, postemergence, visual injury rating after approximately 10 d; read-out: Galium plant response rating (0 to 100 scale, 0 no effect, 100 complete control). Summed up:
as §1

A further assay concerns Kochia (Kochia scoparia). In words: Test A postemergence. The settings on record: Bassia scoparia, post-emergence, 240 h, 125 g ai/ha, postemergence, visual injury rating after approximately 10 d; read-out: Kochia plant response rating (0 to 100 scale, 0 no effect, 100 complete control). Summed up: as §1
Assay [3] has as its system barnyardgrass (Echinochloa crus-galli). Kind of assay: Test A postemergence. The settings on record: Echinochloa crus-galli, post-emergence, 240 h, 125 g ai/ha, postemergence, visual injury rating after approximately 10 d; read-out: Barnyardgrass plant response rating (0 to 100 scale, 0 no effect, 100 complete control). Summed up:
as §1

Assay [4] concerns blackgrass (Alopecurus myosuroides). Kind of assay: Test A postemergence. The settings on record: Alopecurus myosuroides, post-emergence, 240 h, 125 g ai/ha, postemergence, visual injury rating after approximately 10 d; read-out: Blackgrass plant response rating (0 to 100 scale, 0 no effect, 100 complete control). In outline: as §1
The next assay has as its system corn (Zea mays). In words: Test A postemergence. The settings on record: Zea mays, post-emergence, 240 h, 125 g ai/ha, postemergence, visual injury rating after approximately 10 d; read-out: Corn plant response rating (0 to 100 scale, 0 no effect, 100 complete control). Summed up:
as §1

Assay [5] relates to giant foxtail (Setaria faberii). In words: Test A postemergence. Particulars: Setaria faberi, post-emergence, 240 h, 125 g ai/ha, postemergence, visual injury rating after approximately 10 d; read-out: Foxtail, Giant plant response rating (0 to 100 scale, 0 no effect, 100 complete control). Summed up:
as §1

Assay [6] has as its system pigweed (Amaranthus retroflexus). In words: Test A postemergence. The settings on record: Amaranthus retroflexus, post-emergence, 240 h, 125 g ai/ha, postemergence, visual injury rating after approximately 10 d; read-out: Pigweed plant response rating (0 to 100 scale, 0 no effect, 100 complete control). In outline:
as §1

For assay [7], the system named is ragweed (common ragweed, Ambrosia elatior). In words: Test A postemergence. Particulars: Ambrosia artemisiifolia, post-emergence, 240 h, 125 g ai/ha, postemergence, visual injury rating after approximately 10 d; read-out: Ragweed plant response rating (0 to 100 scale, 0 no effect, 100 complete control). Summed up:
as §1

Assay [8] has as its system ryegrass, Italian (Italian ryegrass, Lolium multiflorum). Kind of assay: Test A postemergence. The settings on record: Lolium multiflorum, post-emergence, 240 h, 125 g ai/ha, postemergence, visual injury rating after approximately 10 d; read-out: Ryegrass, Italian plant response rating (0 to 100 scale, 0 no effect, 100 complete control). In outline: as §1
Assay [9] deals with wheat (Triticum aestivum). Kind of assay: Test A postemergence. Particulars: Triticum aestivum, post-emergence, 240 h, 125 g ai/ha, postemergence, visual injury rating after approximately 10 d; read-out: Wheat plant response rating (0 to 100 scale, 0 no effect, 100 complete control). In outline: as §1
The subject of assay [10] is barnyardgrass (Echinochloa crus-galli). In words: Test B flooded paddy test. The settings on record: Echinochloa crus-galli, Flood, 250 g ai/ha; scale of 0 to 100 where 0 is no effect and 100 is complete control; read-out: Barnyardgrass plant response rating. Summed up:
(§2)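 2-leaf plants; pots flooded 3 cm over soil; cpd added to paddy water; depth held; greenhouse 13–15 d; visual rating vs controls, 0 = no effect, 100 = complete control.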

Assay [11] concerns ducksalad (Heteranthera limosa). Kind of assay: Test B flooded paddy test. Particulars: Heteranthera limosa, Flood, 250 g ai/ha; scale of 0 to 100 where 0 is no effect and 100 is complete control; read-out: Ducksalad plant response rating. Summed up:
as §2

The test system of another assay is rice (Oryra sativa). Kind of assay: Test B flooded paddy test. The settings on record: Oryza sativa, Flood, 250 g ai/ha; scale of 0 to 100 where 0 is no effect and 100 is complete control; read-out: Rice plant response rating. Summed up:
as §2

In assay [12] the test system is sedge, umbrella (small-flower umbrella sedge, Cyperus difformis). In words: Test B flooded paddy test. Particulars: Cyperus difformis, Flood, 250 g ai/ha; scale of 0 to 100 where 0 is no effect and 100 is complete control; read-out: Sedge, Umbrella plant response rating. Summed up: as §2

For the compound `CN1C[C@H](c2cccc(C3CC3)c2)[C@@H](C(=O)Nc2cccc(F)c2F)C1=O` [Compound 816], the pest or weed control at 125 g/ha was found to be 70% in assay [1]; 60% in [2]; 30% with Kochia (Kochia scoparia); 90% in [3]; 60% in assay [4]; 90% in assay [5]. Moreover, the pest or weed control at 125 g/ha turned out to be 0% in [6], 0% in assay [7] and 60% in [8]. In addition, the pest or weed control at 500 g/ha in assay [1] came to 80%. For the same compound, the plant injury at 125 g/ha was found to be 90% in the assay with corn (Zea mays) and 30% in assay [9]. The pest or weed control at 250 g/ha is 55% in [10], 75% in [11], 30% with rice (Oryra sativa) and 0% in assay [12].
For `CN1C[C@H](c2cccc(F)c2)[C@@H](C(=O)Nc2ccccc2S(C)(=O)=O)C1=O` [Compound 824], the pest or weed control at 125 g/ha in assay [1] came to 20%; in assay [2], 40%; in the assay with Kochia (Kochia scoparia), 0%; in assay [3], 90%; in [4], 20%; in assay [5], 90%. Also, the values for the pest or weed control at 125 g/ha in assay [6], in [7] and in assay [8] were 0%, 30% and 30%, respectively. Moreover, the pest or weed control at 500 g/ha in assay [1] is 40%. Moreover, the plant injury at 125 g/ha (with corn (Zea mays); in assay [9]) was 0% each time. In addition, the pest or weed control at 250 g/ha was found to be 65% in [10], 95% in [11], 0% with rice (Oryra sativa) and 0% in [12].
With `O=C1NC[C@H](c2cccc(C(F)(F)F)c2)[C@H]1C(=O)Nc1cccc2c1OC(F)(F)O2` [Compound 827], the pest or weed control at 125 g/ha in assay [1] amounted to 30%; in assay [2], 40%; with Kochia (Kochia scoparia), 0%; in [3], 70%; in assay [4], 40%; in assay [5], 80%. The pest or weed control at 125 g/ha in [6], in assay [7] and in [8] was 0% each time. For the same compound, in assay [1], the pest or weed control at 500 g/ha is 70%. In addition, the plant injury at 125 g/ha (with corn (Zea mays); in [9]) was 20% in each case. In addition, the pest or weed control at 250 g/ha was determined as 30% in assay [10], 75% in assay [11], 0% in the assay on rice (Oryra sativa) and 0% in assay [12].
On to `Cc1c(F)ccc([C@H]2CNC(=O)[C@@H]2C(=O)Nc2ccc(F)c(F)c2F)c1F` [Compound 830], for which the pest or weed control at 125 g/ha in assay [1] came to 0%; in assay [2], 30%; in the assay with Kochia (Kochia scoparia) it was 30%; in [3], 90%; in assay [4] it was 20%; in assay [5], 70%. Also, the figures for the pest or weed control at 125 g/ha in assay [6], in [7] and in [8] were 0%, 0% and 20%, respectively. Further, in [1], the pest or weed control at 500 g/ha is 30%. Besides, the plant injury at 125 g/ha (in the assay on corn (Zea mays); in assay [9]) was 0% each time. The pest or weed control at 250 g/ha in assay [10] came out at 20%; in assay [11] it was 100%; in the assay on rice (Oryra sativa), 0%; in assay [12], 0%.
With `Cc1c(F)ccc([C@H]2CNC(=O)[C@@H]2C(=O)Nc2ccccc2C(F)(F)F)c1F` [Compound 831], the pest or weed control at 125 g/ha came to 30% in assay [1]; 20% in [2]; 0% in the assay on Kochia (Kochia scoparia); 30% in [3]; 0% in assay [4]; 20% in [5]. Further, the results for the pest or weed control at 125 g/ha in assay [6], in assay [7] and in assay [8] were 0%, 0% and 20%, respectively. For the same compound, the pest or weed control at 500 g/ha in [1] came out at 50%. Further, the plant injury at 125 g/ha (in the assay on corn (Zea mays); in assay [9]) was 0% each time. In addition, the pest or weed control at 250 g/ha in assay [10] turned out to be 0%; in assay [11] it was 70%; in the assay on rice (Oryra sativa), 0%; in assay [12], 0%.
With `Cc1c(F)ccc([C@H]2CNC(=O)[C@@H]2C(=O)Nc2ccccc2S(C)(=O)=O)c1F` [Compound 832], the pest or weed control at 125 g/ha in assay [1] came to 0%; in assay [2] it was 50%; in the assay with Kochia (Kochia scoparia), 20%; in assay [3] it was 70%; in [4], 0%; in assay [5], 0%. Further, the pest or weed control at 125 g/ha in assay [6] stood at 0%; in assay [7] it was 20%; in assay [8], 20%. For the same compound, the pest or weed control at 500 g/ha in assay [1] was found to be 30%. Also, the plant injury at 125 g/ha (in the assay with corn (Zea mays); in assay [9]) was 0% each time. The pest or weed control at 250 g/ha in assay [10] was determined as 0%; in [11] it was 100%; with rice (Oryra sativa), 15%; in assay [12], 0%.
Regarding `Cc1c(F)ccc([C@H]2CN(C)C(=O)[C@@H]2C(=O)Nc2cccc(F)c2F)c1F` [Compound 834], the pest or weed control at 125 g/ha worked out at 70% in assay [1]; 60% in assay [2]; 40% in the assay on Kochia (Kochia scoparia); 90% in assay [3]; 60% in [4]; 90% in assay [5]. Also, the figures for the pest or weed control at 125 g/ha in [6], in [7] and in [8] were 20%, 0% and 60%, respectively. Besides, the pest or weed control at 500 g/ha in [1] is 80%. The figures for the plant injury at 125 g/ha (in the assay with corn (Zea mays); in assay [9]) were 40% and 30%, respectively. For the same compound, the pest or weed control at 250 g/ha in assay [10] was determined as 60%; in assay [11], 65%; in the assay on rice (Oryra sativa), 0%; in assay [12], 0%.
